Test results reported in patent US12157741B2, “Macrocyclic inhibitors of DYRK1A” (DANA-FARBER CANCER INSTITUTE, INC., priority 2018, dated 2024).

Columns and labels:
Type in all cases: biochemical
CLK1 = molecular target: T1, CLK1 (Homo sapiens, UniProt P49759); assay: CLK1 enzyme assay (Promega ADP-Glo Kinase assay); details: 10 μM ATP, read-out: Enzyme activity against CLK1
T1 construct: purchased Signalchem C57-11G
Procedure: All CLK1 kinase inhibition assays were conducted by using Promega™ ADP-Glo™ Kinase assay systems (Cat No. V9102).
For DYRKIA enzyme assay, each inhibitor mixed with 0.1 μg/μL of substrate (MBP, SignalChem, M42-51N), 10 μM ATP (Promega™, Cat No. V9102), 1.6 ng of CLK1 enzyme (Signalchem, C57-11G) in 384-well plate. All samples were diluted with kinase reaction buffer (40 mM Tris HCl, 10 mM MgCL2, and 0.1 μg/μL BSA, 0.05 mM DTT). After 1 h reaction at 25° C., ADP-Glo™ (Promega™, Cat No. V9102) reagent was added and incubated at rt for 40 min. Finally, kinase detection reagent (Promega™, Cat No. V6930) was added and reacted at 25° C. for 10 min. The luminescence signals were detected by using Synergy™ Neo2 microplate reader (BioTek®). Compound inhibition curve was fitted using GraphPad Prism 8.0 software.

LRRK2 (G2019S) = molecular target: T2, LRRK2 (G2019S) (Homo sapiens, UniProt Q5S007, G2019S); assay: LRRK2(G2019S) enzyme assay (Promega ADP-Glo Kinase assay); details: 25 μM ATP, read-out: Enzyme activity against LRRK2 (G2019S)
T2 construct: purchased SignalChem L10-12GG
Procedure: All LRRK2 kinase inhibition assays were conducted by using Promega™ ADP-Glo™ Kinase assay systems (Cat No. V4475).
For LRRK G2019S, each compound mixed with 0.2 μg/μL of substrate, 25 μM ATP, 16 ng of LRRK2 G2019S enzyme (SignalChem, L10-12GG). All samples were diluted with kinase reaction buffer (40 mmol/L TrisHCl, 10 mmol/L MgCl2, and 0.1 μg/μL BSA, 0.05 mM DTT). After a 2 h reaction at 25° C., ADP-Glo™ (Promega™, V9102) reagent was added and incubated at rt for 40 min. Finally, kinase detection reagent (Promega™, Cat No. V6930) was added and reacted at 25° C. for 10 min. The luminescence signals were detected by using Synergy™ Neo2 microplate reader (BioTek®). Compound inhibition curve was fitted using GraphPad Prism 8.0 software.

DYRK1A = molecular target: T3, DYRK1A (Homo sapiens, UniProt Q13627); assay: DYRK1A enzyme assay (Promega ADP-Glo Kinase assay); details: for IC50: ADP-Glo, 3 μM ATP, read-out: Enzyme activity against DYRK1A; for potency against DYRK1A (statement on Table 5): statement in words
T3 construct: purchased Thermo Fisher Scientific PR7189B
Procedure: All DYRK1A kinase inhibition assays were conducted by using Promega™ ADP-Glo™ Kinase assay systems (Cat No. V9102).
For DYRK1A enzyme assay, each inhibitor mixed with 0.2 μg/μL of substrate (MVBP, SignalChem, M42-51N), 3 μM ATP (Promega™, Cat No. V9102), 3 ng of DYRK1A enzyme (Thermo Fisher Scientific, PR7189B) in 384-well plate. All samples were diluted with kinase reaction buffer (40 mM Tris HCl, 10 mM MgCL2, and 0.1 μg/μL BSA (bovine serum albumin), 0.05 mM DTT). After 1 h reaction at 25° C., ADP-Glo™ (Proeg™, V9102) reagent was added and incubated at rt for 40 min. Finally, kinase detection reagent (Promega™, Cat No. V6930) was added and reacted at 25° C. for 10 min. The luminescence signals were detected by using Synergy™ Neo2 microplate reader (BioTek®). Compound inhibition curve was fitted using GraphPad Prism 8.0 software.

DYRK1B = molecular target: T4, DYRK1B (Homo sapiens, UniProt Q9Y463); assay: Invitrogen Zlyte assay, DYRK1B
T4 construct: purchased Invitrogen (assay run by the vendor)
T4 sequence (Q9Y463 whole entry): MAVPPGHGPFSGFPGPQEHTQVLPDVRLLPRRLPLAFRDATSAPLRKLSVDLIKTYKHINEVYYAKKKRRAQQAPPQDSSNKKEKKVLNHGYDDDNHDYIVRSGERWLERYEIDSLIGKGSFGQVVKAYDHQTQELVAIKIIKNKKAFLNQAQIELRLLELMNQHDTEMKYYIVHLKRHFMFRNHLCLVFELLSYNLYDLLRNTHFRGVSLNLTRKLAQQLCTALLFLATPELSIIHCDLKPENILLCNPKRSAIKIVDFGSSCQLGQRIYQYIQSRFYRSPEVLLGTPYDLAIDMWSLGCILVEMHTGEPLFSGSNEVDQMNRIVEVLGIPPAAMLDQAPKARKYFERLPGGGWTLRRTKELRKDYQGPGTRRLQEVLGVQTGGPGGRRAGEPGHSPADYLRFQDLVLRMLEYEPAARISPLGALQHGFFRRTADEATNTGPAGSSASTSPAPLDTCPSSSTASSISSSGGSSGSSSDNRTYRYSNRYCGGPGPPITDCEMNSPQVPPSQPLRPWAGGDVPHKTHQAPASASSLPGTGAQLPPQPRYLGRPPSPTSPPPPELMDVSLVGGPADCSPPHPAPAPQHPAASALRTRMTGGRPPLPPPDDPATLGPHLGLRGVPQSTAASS

T1 sequence (P49759 whole entry): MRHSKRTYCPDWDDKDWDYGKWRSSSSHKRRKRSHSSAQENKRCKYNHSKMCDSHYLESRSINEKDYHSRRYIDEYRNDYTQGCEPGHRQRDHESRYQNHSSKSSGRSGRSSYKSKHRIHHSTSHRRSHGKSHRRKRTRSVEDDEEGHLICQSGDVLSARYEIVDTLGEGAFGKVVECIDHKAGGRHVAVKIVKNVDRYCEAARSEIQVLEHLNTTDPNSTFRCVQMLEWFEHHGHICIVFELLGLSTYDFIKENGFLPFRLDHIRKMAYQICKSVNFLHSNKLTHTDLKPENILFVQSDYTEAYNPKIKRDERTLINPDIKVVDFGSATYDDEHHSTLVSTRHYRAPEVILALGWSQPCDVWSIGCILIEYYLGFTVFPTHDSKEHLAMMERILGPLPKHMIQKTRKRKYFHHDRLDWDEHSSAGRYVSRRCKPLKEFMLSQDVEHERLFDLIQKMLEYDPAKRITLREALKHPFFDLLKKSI
T2 sequence (Q5S007 whole entry G2019S): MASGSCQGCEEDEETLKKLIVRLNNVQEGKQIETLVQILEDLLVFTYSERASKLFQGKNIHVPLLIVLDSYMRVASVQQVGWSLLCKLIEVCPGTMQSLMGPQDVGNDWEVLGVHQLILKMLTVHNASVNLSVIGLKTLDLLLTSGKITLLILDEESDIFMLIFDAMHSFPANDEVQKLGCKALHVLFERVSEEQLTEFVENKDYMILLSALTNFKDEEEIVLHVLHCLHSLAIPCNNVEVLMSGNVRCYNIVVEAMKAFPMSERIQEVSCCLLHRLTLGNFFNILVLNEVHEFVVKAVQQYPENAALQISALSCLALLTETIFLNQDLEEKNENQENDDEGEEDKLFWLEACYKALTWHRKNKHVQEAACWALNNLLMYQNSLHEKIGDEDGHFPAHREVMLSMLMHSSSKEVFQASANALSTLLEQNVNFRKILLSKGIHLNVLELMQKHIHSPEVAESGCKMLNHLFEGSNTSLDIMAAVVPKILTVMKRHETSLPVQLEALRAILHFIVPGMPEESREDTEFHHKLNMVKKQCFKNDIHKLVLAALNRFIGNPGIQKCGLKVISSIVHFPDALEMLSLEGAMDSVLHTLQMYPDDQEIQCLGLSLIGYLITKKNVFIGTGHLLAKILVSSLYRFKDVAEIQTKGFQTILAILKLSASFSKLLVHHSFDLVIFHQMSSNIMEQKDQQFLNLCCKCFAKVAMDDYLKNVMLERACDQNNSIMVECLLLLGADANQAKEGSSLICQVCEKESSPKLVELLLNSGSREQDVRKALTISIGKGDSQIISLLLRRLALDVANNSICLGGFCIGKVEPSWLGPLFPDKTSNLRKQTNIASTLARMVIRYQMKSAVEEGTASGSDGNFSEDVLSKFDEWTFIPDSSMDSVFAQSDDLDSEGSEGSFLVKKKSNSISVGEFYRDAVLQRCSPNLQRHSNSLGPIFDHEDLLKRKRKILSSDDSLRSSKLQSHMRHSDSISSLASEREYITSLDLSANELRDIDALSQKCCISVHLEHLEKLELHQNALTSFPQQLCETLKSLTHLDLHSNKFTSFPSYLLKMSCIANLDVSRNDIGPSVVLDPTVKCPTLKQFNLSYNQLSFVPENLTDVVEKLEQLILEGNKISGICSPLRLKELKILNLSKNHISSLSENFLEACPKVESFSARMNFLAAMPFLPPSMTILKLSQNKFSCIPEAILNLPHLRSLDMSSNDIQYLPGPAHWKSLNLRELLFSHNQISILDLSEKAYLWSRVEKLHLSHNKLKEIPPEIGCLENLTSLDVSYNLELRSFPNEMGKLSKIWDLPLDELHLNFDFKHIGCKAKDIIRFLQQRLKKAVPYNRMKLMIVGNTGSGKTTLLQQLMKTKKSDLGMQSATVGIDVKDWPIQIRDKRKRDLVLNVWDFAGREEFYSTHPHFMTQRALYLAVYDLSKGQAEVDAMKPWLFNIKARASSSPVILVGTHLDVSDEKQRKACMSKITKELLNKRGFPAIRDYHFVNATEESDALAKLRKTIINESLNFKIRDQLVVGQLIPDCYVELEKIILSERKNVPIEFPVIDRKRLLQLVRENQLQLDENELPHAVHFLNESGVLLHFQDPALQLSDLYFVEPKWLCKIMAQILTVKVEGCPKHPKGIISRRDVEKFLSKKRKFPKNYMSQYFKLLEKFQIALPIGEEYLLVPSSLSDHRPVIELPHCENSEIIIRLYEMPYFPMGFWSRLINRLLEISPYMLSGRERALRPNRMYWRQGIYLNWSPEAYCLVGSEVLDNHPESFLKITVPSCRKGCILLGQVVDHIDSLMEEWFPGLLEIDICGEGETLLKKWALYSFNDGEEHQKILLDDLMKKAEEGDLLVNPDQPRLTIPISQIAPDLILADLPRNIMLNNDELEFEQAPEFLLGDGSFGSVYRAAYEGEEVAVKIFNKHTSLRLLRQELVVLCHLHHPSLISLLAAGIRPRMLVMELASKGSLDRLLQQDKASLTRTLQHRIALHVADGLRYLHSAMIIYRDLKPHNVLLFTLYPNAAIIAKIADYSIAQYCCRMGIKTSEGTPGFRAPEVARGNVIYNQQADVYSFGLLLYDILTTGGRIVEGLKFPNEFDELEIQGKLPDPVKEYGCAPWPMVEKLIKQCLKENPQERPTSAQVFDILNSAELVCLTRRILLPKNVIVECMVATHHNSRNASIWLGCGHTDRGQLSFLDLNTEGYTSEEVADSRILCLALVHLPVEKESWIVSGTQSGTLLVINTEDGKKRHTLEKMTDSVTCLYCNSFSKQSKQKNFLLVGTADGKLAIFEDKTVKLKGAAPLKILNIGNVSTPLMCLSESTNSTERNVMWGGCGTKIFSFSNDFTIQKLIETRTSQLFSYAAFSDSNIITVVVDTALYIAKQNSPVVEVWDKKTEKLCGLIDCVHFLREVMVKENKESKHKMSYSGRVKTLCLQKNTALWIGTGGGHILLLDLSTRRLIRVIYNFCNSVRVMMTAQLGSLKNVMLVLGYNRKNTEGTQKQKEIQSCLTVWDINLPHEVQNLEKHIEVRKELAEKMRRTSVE

Row | Compound | IC50 (CLK1) [µM] | IC50 (LRRK2 (G2019S)) [µM] | IC50 (DYRK1A) [µM] | potency against DYRK1A (statement on Table 5) (DYRK1A) | IC50 (DYRK1B) [µM]
1 | COc1c2c(nn1C)CN(C(C)C)C(=O)CCCn1cc(c(C(F)(F)F)n1)-c1c(C)[nH]c3ncc-2cc13 [Compound 51, (Z)-5-isopropyl-35-methoxy-22,31-dimethyl-13-(trifluoromethyl)-11H,21H,31H-5-aza-2(3,5)-pyrrolo[2,3-b]pyridina-1(4,1),3(4,3)-dipyrazolacyclononaphan-6-one] |  |  |  |  | 0.533
2 | Cc1[nH]c2ncc3cc2c1-c1cn(nc1C(F)(F)F)CCCC(=O)N(C)Cc1nn(C)c(C#N)c1-3 [Compound 52, (Z)-22,31,5-trimethyl-6-oxo-13-(trifluoromethyl)-11H,21H,31H-5-aza-2(3,5)-pyrrolo[2,3-b]pyridina-1(4,1),3(4,3)-dipyrazolacyclononaphane-35-carbonitrile] |  |  |  |  | 0.055
3 | CN1Cc2nn(C3CCNCC3)cc2-c2cnc3[nH]cc(c3c2)-c2cn(nc2C(F)(F)F)CCC1=O [Compound 65, (Z)-5-methyl-31-(piperidin-4-yl)-13-(trifluoromethyl)-11H,21H,31H-5-aza-2(3,5)-pyrrolo[2,3-b]pyridina-1(4,1),3(4,3)-dipyrazolacyclooctaphan-6-one] | > 0.1 | > 0.1 | > 0.1 |  | 
4 | COCCn1nc2c(c1C#N)-c1cnc3[nH]cc(c3c1)-c1cn(nc1C(F)(F)F)CCC(=O)N(C)C2 [Compound 67, (Z)-31-(2-methoxyethyl)-5-methyl-6-oxo-13-(trifluoromethyl)-11H,21H,31H-5-aza-2(3,5)-pyrrolo[2,3-b]pyridina-1(4,1),3(4,3)-dipyrazolacyclooctaphane-35-carbonitrile] | > 0.1 | > 0.1 | < 0.05 | most potent | 
5 | CN1CCCCn2cc(c(C(F)(F)F)n2)-c2c[nH]c3ncc(cc23)-c2cn(C)nc2C1=O [Compound 75, (Z)-31,5-dimethyl-13-(trifluoromethyl)-11H,21H,31H-5-aza-2(3,5)-pyrrolo[2,3-b]pyridina-1(4,1),3(4,3)-dipyrazolacyclononaphan-4-one] | > 0.1 | > 0.1 | > 0.1 |  | 
6 | CN1CCCCn2cc(c(C(F)(F)F)n2)-c2c[nH]c3ncc(cc23)-c2c(nn(C)c2C#N)C1=O [Compound 78, (Z)-31,5-dimethyl-4-oxo-13-(trifluoromethyl)-11H,21H,31H-5-aza-2(3,5)-pyrrolo[2,3-b]pyridina-1(4,1),3(4,3)-dipyrazolacyclononaphane-35-carbonitrile] | > 0.1 | > 0.1 | > 0.1 |  | 

Second part, led by results:

Row | IC50 (CLK1) [µM] | IC50 (LRRK2 (G2019S)) [µM] | IC50 (DYRK1A) [µM] | potency against DYRK1A (statement on Table 5) (DYRK1A) | Compound | IC50 (DYRK1B) [µM]
7 | < 0.05 | > 0.1 | < 0.05 | most potent | CN1Cc2nn(C)cc2-c2cnc3[nH]cc(c3c2)-c2cn(nc2C(F)(F)F)CCCC1=O [Compound 43, (Z)-31,5-dimethyl-13-(trifluoromethyl)-11H,21H,31H-5-aza-2(3,5)-pyrrolo[2,3-b]pyridina-1(4,1),3(4,3)-dipyrazolacyclononaphan-6-one] | 
8 | < 0.05 | > 0.1 | < 0.05 | most potent | COCCn1cc2c(n1)CN(C)C(=O)CCCn1cc(c(C(F)(F)F)n1)-c1c[nH]c3ncc-2cc13 [Compound 59, (Z)-31-(2-methoxyethyl)-5-methyl-13-(trifluoromethyl)-11H,21H,31H-5-aza-2(3,5)-pyrrolo[2,3-b]pyridina-1(4,1),3(4,3)-dipyrazolacyclononaphan-6-one] | 
9 | < 0.05 | > 0.1 | < 0.05 | most potent | CN1Cc2nn(C3CCNCC3)cc2-c2cnc3[nH]cc(c3c2)-c2cn(nc2C(F)(F)F)CCCC1=O [Compound 60, (Z)-5-methyl-31-(piperidin-4-yl)-13-(trifluoromethyl)-11H,21H,31H-5-aza-2(3,5)-pyrrolo[2,3-b]pyridina-1(4,1),3(4,3)-dipyrazolacyclononaphan-6-one] | 
10 | > 0.1 | > 0.1 | < 0.05 | most potent | COCCn1nc2c(c1C#N)-c1cnc3[nH]cc(c3c1)-c1cn(nc1C(F)(F)F)CCCC(=O)N(C)C2 [Compound 61, (Z)-31-(2-methoxyethyl)-5-methyl-6-oxo-13-(trifluoromethyl)-11H,21H,31H-5-aza-2(3,5)-pyrrolo[2,3-b]pyridina-1(4,1),3(4,3)-dipyrazolacyclononaphane-35-carbonitrile] | 
11 | < 0.05 | 0.05 to 0.1 | 0.05 to 0.1 |  | CN1Cc2nn(C)cc2-c2cnc3[nH]cc(c3c2)-c2cn(nc2C(F)(F)F)CCC1=O [Compound 63, (Z)-31,5-dimethyl-13-(trifluoromethyl)-11H,21H,31H-5-aza-2(3,5)-pyrrolo[2,3-b]pyridina-1(4,1),3(4,3)-dipyrazolacyclooctaphan-6-one] | 
